Counter-ions that a name gives are not always drawn. Like-named read-outs stand apart in the source and are kept apart here.
Protocol: Amorphous state of Ib can be prepared by dissolving Form VIII in 82% t-butanol/18% water at a drug concentration of ˜6 mg/mL. This solution was lyophilized overnight (˜18 hours) to form the amorphous material.

Compound: CCC(=O)NS(=O)(=O)c1ccc(NC(=O)Cc2ccc(Br)c(Oc3cc(Cl)cc(C#N)c3)c2F)c(Cl)c1 [amorphous material, 2-[4-Bromo-3-(3-chloro-5-cyano-phenoxy)-2-fluoro-phenyl]-N-(2-chloro-4-propionylsulfamoyl-phenyl)-acetamide, sodium salt]
- stability of amorphous material on storage (25C/60 RH, at least one week): stable at 25C/60 RH for at least one week
- stability of amorphous material on storage (40C/75 RH): not at 40C/75 RH

Source: US8063103B2, “Polymorphs of acyl sulfonamides” (Roche Palo Alto LLC, priority 2008, dated 2011)
